Peptide text beside a SMILES is read from it.
Tests used:
E. coli = experiment: Salt sensitivity assay (MIC in the presence of salts); type: cell-based, Escherichia coli; details: for MIC in the presence of NH4Cl: MHB + 6 μM NH4Cl; for MIC in the presence of NH4Cl / MIC in the presence of KCl / MIC in the presence of NaCl / MIC in the presence of PBS: 18–20 h; for MIC in the presence of MgCl2: MHB + 1 mM MgCl2, 18–20 h; for MIC in the presence of CaCl2: MHB + 2.5 mM CaCl2, 18–20 h; for MIC in the presence of FeCl3: MHB + 4 mM FeCl3, 18–20 h; for MIC in the presence of KCl: MHB + 4.5 mM KCl; for MIC in the presence of ZnCl2: MHB + 8 mM ZnCl2, 18–20 h; for MIC in the presence of NaCl: MHB + 150 mM NaCl; for MIC in the presence of PBS: MHB, PBS (no added salt), 37 °C
Experimental: To determine the salt sensitivity of peptides, E. coli was used to detect the changes in MIC values of peptides under different salt conditions. The bacterial culture method used was similar to the MIC experimental method described earlier. Different concentrations of salts (150 mM NaCl, 4.5 mM KCl, 6 μM NH4Cl, 1 mM MgCl2, 1 mM MgCl2, 8 mM ZnCl2, 2.5 mM CaCl2, 4 mM FeCl3) were added to the MHB to examine the effects of each salt on the anti-E. coli activities of the peptides, as described in a previous study. Then, the bacterial dilution with salt was mixed well with peptides of different concentrations, similar to the MIC/MBC experiments, and cultured at 37 °C. After 18–20 h of incubation, the absorbance of each well was measured at 550 nm using the Synergy HT plate reader.

S. aureus (ATCC 6538) = type: cell-based, Staphylococcus aureus; details: for MIC: MHB, 5 × 10^5 CFU/mL, overnight, absorbance 550 nm; for MBC: clear wells spotted onto MHA
Experimental: (§1) The antimicrobial efficacy screening of the purified peptides was performed by MIC/MBC experiments on the following six different bacteria and an opportunistic pathogenic yeast: E. coli (ATCC 8739), Klebsiella pneumoniae (K. pneumoniae) (ATCC 43816), Pseudomonas aeruginosa (P. aeruginosa) (ATCC 9027), Staphylococcus aureus (S. aureus) (ATCC 6538), methicillin-resistant Staphylococcus aureus (MRSA) (NCTC 12493), Enterococcus faecium (E. faecium) (NCTC 12697), and Candida albicans (C. albicans) (ATCC 10231). First, frozen beads of respective cultures were inoculated into Mueller Hinton broth (MHB) medium and incubated overnight at 37 °C. Next, 500 µL of respective suspensions were added to the fresh MHB medium for incubation, and then sub-cultured until reaching the log growth phase, which was determined by measuring the absorbance of cultures at a wavelength of 550 nm. Then, the subcultures were diluted to 5 × 10^5 CFU/mL and 99 µL of suspension was removed and mixed with 1 µL of peptide solution at different concentrations (double-dilution of 12,800 to 100 µM) in a 96-well plate. The blank control, vehicle control, growth control, and the positive control groups were prepared according to the conditions mentioned previously. The peptide solutions were added to the plate and mixed with the diluted microbial suspensions. After overnight incubation, the absorbance at 550 nm of each well was measured with a Synergy HT plate reader (Biotech, Minneapolis, MN, USA). Subsequently, the samples in each clear well were spotted onto Mueller Hinton agar (MHA) plates for the MBC assays of the tested peptides.

E. coli (ATCC 8739) = type: cell-based, Escherichia coli; details: for MIC: MHB, 5 × 10^5 CFU/mL, overnight; for MBC: clear wells spotted onto MHA
Experimental: as §1

MRSA (NCTC 12493) = type: cell-based, methicillin-resistant Staphylococcus aureus; details: for MIC: MHB, 5 × 10^5 CFU/mL, overnight; for MBC: clear wells spotted onto MHA
Experimental: as §1

[1] = system: U251MG human glioblastoma cells; experiment: MTT cell antiproliferation assay; type: cell-based; details: 24 h of treatment, serum free medium, 10^−9–10^−4 M
Experimental: (§2) The antiproliferative activities of the synthesized peptides were assessed on six human cancer cell lines (PC-3, H157, H460, H838, MCF-7, U251MG) and two human normal cell lines (HMEC-1 and MRC-5) using the MTT cell viability assay. Human lung cancer cells (H838, H157, and H460) and human prostate cancer cells (PC-3) were cultured in complete growth medium (CGM) (Roswell Park Memorial Institute (RPMI) 1640 Medium (Gibco, Paisley, UK): Fetal bovine serum (FBS) (Gibco, Campinas, Brazil): Penicillin-streptomycin solution (PS) (Gibco, Grand Island, NY, USA) 89/10/1 v/v/v). Human glioblastoma astrocytoma (U251MG) and human breast cancer cell (MCF-7) were cultured in complete growth medium (Dulbecco’s Modified Eagle medium (DMEM) (Gibco, Paisley, UK): FBS: PS 89/10/1 v/v/v). Human microvascular endothelial cells (HMEC-1) and human pulmonary fibroblast cells (MRC-5) were cultured in MCDB131 medium (supplemented with 10% FBS, 1% PS, 10 ng/mL epidermal growth factor, 1 µg/mL hydrocortisone, and 10 mM glutamine) and Eagle’s Minimal Essential Medium (EMEM) (supplemented with 10% FBS and 1% PS), respectively. Cell suspension, containing 8 × 10^3 cells per 100 µL, was first added to 96-well plates for overnight incubation. Then, the adherent cells in the 96-well plates were subject to cell starvation using the serum free medium treatment for at least 4 h to ensure that the cells were all in the same growth cycle. The peptide solutions, with final concentrations of 10^−9–10^−4 M, were prepared with serum free medium and added onto the plate. In addition, Triton X-100 (0.1%) (Sigma-Aldrich, St. Louis, MO, USA) was used as a positive control. After 24 h of administration, the MTT solution was added to the plate and incubated for 2 h. Then, the supernatant was discarded and DMSO was added to dissolve the purple formazan crystals. The absorbance was measured in all wells using the Synergy HT plate reader at a wavelength of 570 nm.

[2] = system: H838 human lung cancer cells; experiment: MTT cell antiproliferation assay; type: cell-based; details: 24 h of treatment, serum free medium, 10^−9–10^−4 M
Experimental: as §2

[3] = system: PC-3 human prostate cancer cells; experiment: MTT cell antiproliferation assay; type: cell-based; details: PC-3, MTT, 24 h of treatment, serum free medium, 10^−9–10^−4 M
Experimental: as §2

[4] = system: MRC-5 human pulmonary fibroblast cells; experiment: MTT cell antiproliferation assay; type: cell-based; details: MRC-5 normal cells, 24 h of treatment, 10^−9–10^−4 M
Experimental: as §2

[5] = system: H460 human lung cancer cells; experiment: MTT cell antiproliferation assay; type: cell-based; details: 24 h of treatment, serum free medium, 10^−9–10^−4 M
Experimental: as §2

[6] = system: H157 human lung cancer cells; experiment: MTT cell antiproliferation assay; type: cell-based; details: 24 h of treatment, serum free medium, 10^−9–10^−4 M
Experimental: as §2

[7] = system: MCF-7 human breast cancer cells; experiment: MTT cell antiproliferation assay; type: cell-based; details: MCF-7, MTT, 24 h of treatment, serum free medium, 10^−9–10^−4 M
Experimental: as §2

[8] = system: HMEC-1 human microvascular endothelial cells; experiment: MTT cell antiproliferation assay; type: cell-based; details: HMEC-1 normal cells, 24 h of treatment, 10^−9–10^−4 M
Experimental: as §2

Structure (SMILES) | MIC in the presence of NH4Cl (E. coli) | MIC in the presence of MgCl2 (E. coli) | MIC in the presence of CaCl2 (E. coli) | MIC in the presence of FeCl3 (E. coli) | MIC in the presence of KCl (E. coli) | MIC in the presence of ZnCl2 (E. coli) | MIC in the presence of NaCl (E. coli) | MIC in the presence of PBS (E. coli) | MIC (S. aureus (ATCC 6538)) | MBC (S. aureus (ATCC 6538)) | MIC (E. coli (ATCC 8739)) | MBC (E. coli (ATCC 8739)) | MIC (MRSA (NCTC 12493)) | MBC (MRSA (NCTC 12493)) | IC50 [2] | IC50 [3] | IC50 [4] | IC50 [5] | IC50 [6] | IC50 [8] | further results
CC(C)C[C@H](NC(=O)[C@H](CCCCN)NC(=O)[C@H](C)NC(=O)[C@H](C)N)C(=O)N1CCC[C@H]1C(=O)N[C@@H](Cc1ccccc1)C(=O)N[C@@H](CCCNC(=N)N)C(=O)N[C@H]1CSSC[C@@H](C(=O)O)NC(=O)[C@H](Cc2ccccc2)NC(=O)[C@H](C)NC(=O)[C@H](C)NC(=O)[C@H](Cc2ccccc2)NC1=O [F9-KOV2] (HELM PEPTIDE1{A.A.K.L.P.F.R.C.F.A.A.F.C}$PEPTIDE1,PEPTIDE1,8:R3-13:R3$$$V2.0) | >128 µM | >128 µM | >128 µM | >128 µM | >128 µM | >128 µM | >128 µM | >128 µM | >128 µM | >128 µM | >128 µM | >128 µM | >128 µM | >128 µM |  |  |  |  |  |  | 
CC(C)C[C@H](NC(=O)[C@H](CCCCN)NC(=O)[C@H](C)NC(=O)[C@H](C)N)C(=O)N1CCC[C@H]1C(=O)N[C@@H](Cc1ccccc1)C(=O)N[C@@H](CCCNC(=N)N)C(=O)N[C@H]1CSSC[C@@H](C(=O)O)NC(=O)[C@H](Cc2ccccc2)NC(=O)[C@H](C)NC(=O)[C@H](C)NC(=O)[C@H](CCCCN)NC1=O [Kunitzin-OV2] (HELM PEPTIDE1{A.A.K.L.P.F.R.C.K.A.A.F.C}$PEPTIDE1,PEPTIDE1,8:R3-13:R3$$$V2.0) | >128 µM | >128 µM | >128 µM | >128 µM | >128 µM | >128 µM | >128 µM | 128 µM | >128 µM | >128 µM | 128 µM | 128/128 µM | >128 µM | >128 µM |  |  |  |  |  |  | 
CC(C)C[C@H](NC(=O)[C@H](CCCCN)NC(=O)[C@H](C)NC(=O)[C@H](C)NC(=O)CNC(=O)CNC(=O)[C@H](CCCNC(=N)N)NC(=O)[C@H](CCCNC(=N)N)NC(=O)[C@H](CCCNC(=N)N)NC(=O)[C@H](CCC(N)=O)NC(=O)[C@H](CCCNC(=N)N)NC(=O)[C@H](CCCNC(=N)N)NC(=O)[C@H](CCCCN)NC(=O)[C@H](CCCCN)NC(=O)[C@@H](N)CCCNC(=N)N)C(=O)N1CCC[C@H]1C(=O)N[C@@H](Cc1ccccc1)C(=O)N[C@@H](CCCNC(=N)N)C(=O)N[C@H]1CSSC[C@@H](C(=O)O)NC(=O)[C@H](Cc2ccccc2)NC(=O)[C@H](C)NC(=O)[C@H](C)NC(=O)[C@H](Cc2ccccc2)NC1=O [TAT-F9-KOV2] (HELM PEPTIDE1{R.K.K.R.R.Q.R.R.R.G.G.A.A.K.L.P.F.R.C.F.A.A.F.C}$PEPTIDE1,PEPTIDE1,19:R3-24:R3$$$V2.0) | 8 µM | 16 µM | 32 µM | 8 µM | 8 µM | 8 µM | 8 µM | 8 µM | 64 µM | 128 µM | 8 µM | 8/8 µM | >128 µM | >128 µM | 9.9 µM | 44.3 µM | 43.6 µM | 5.1 µM | 2.2 µM | 98.1 µM | IC50 [1]: 7.6 µM; IC50 [7]: 11.7 µM
CC(C)C[C@H](NC(=O)[C@H](CCCCN)NC(=O)[C@H](C)NC(=O)[C@H](C)NC(=O)CNC(=O)CNC(=O)[C@H](CCCNC(=N)N)NC(=O)[C@H](CCCNC(=N)N)NC(=O)[C@H](CCCNC(=N)N)NC(=O)[C@H](CCC(N)=O)NC(=O)[C@H](CCCNC(=N)N)NC(=O)[C@H](CCCNC(=N)N)NC(=O)[C@H](CCCCN)NC(=O)[C@H](CCCCN)NC(=O)[C@@H](N)CCCNC(=N)N)C(=O)N1CCC[C@H]1C(=O)N[C@@H](Cc1ccccc1)C(=O)N[C@@H](CCCNC(=N)N)C(=O)N[C@H]1CSSC[C@@H](C(=O)O)NC(=O)[C@H](Cc2ccccc2)NC(=O)[C@H](C)NC(=O)[C@H](C)NC(=O)[C@H](CCCCN)NC1=O [TAT-KOV2] (HELM PEPTIDE1{R.K.K.R.R.Q.R.R.R.G.G.A.A.K.L.P.F.R.C.K.A.A.F.C}$PEPTIDE1,PEPTIDE1,19:R3-24:R3$$$V2.0) | 4 µM | 8 µM | 16 µM | 4 µM | 4 µM | 4 µM | 4 µM | 4 µM | 32 µM | 64 µM | 4 µM | 4/4 µM | >128 µM | >128 µM | 92.4 µM | 96.8 µM | 64.9 µM | 49.2 µM | 45.8 µM | 166 µM | 

From publication PMC9501525, “Conjugation of a Cationic Cell-Penetrating Peptide with a Novel Kunitzin-like Trypsin Inhibitor: New Insights for Enhancement of Peptide Bioactivities” (Pharmaceutics, 2022)
